What follows are molecules tested against T1, glycine site of the NMDA receptor (Rattus norvegicus, UniProt P35439) (assay: Binding affinity for the glycine site of the NMDA receptor (test (a))). Details: displacement of selective glycine site radioligand ([3H]-L-689,560) from rat brain membranes.
T1 construct: displace a selective glycine site radioligand from rat brain membranes; from tissue; host or cells: rat brain membranes
Method: (a) Binding affinity for the glycine site of the NMDA receptor
This may be measured by testing a compound's ability to displace a selective glycine site radioligand from rat brain membranes as described in Brit J Pharm (1991), 104, 74. In a variation of this method, thoroughly washed membrane protein is incubated with [^3 H]-L-689,560 for 90 minutes using tris-acetate buffer (pH 7.4). Displacement of the radioligand, using a range of test compound concentrations, is used to derive IC50 (50% inhibitory concentration) values.

IC50, < 50 nM:
CS(=O)(=O)N(CCCO)c1c(Cl)c(Cl)cc2[nH]c(=O)c(=O)[nH]c12 [Example 29]
CCc1c(Cl)cc2[nH]c(=O)c(=O)[nH]c2c1N(CCO)S(C)(=O)=O [Example 40]
CS(=O)(=O)N(CCO)c1c(Cl)c(Cl)cc2[nH]c(=O)c(=O)[nH]c12 (racemic) [Example 17, (RS)-N-(f1,4-Dihydro-6,7-dichloro-2,3-dioxoquinoxaline-5-yl)-N-(2-hydroxyethyl)methanesulphonamide]
CS(=O)(=O)N(CC(=O)O)c1c(Cl)c(Cl)cc2[nH]c(=O)c(=O)[nH]c12 (racemic) [Example 70, (RS)-N-(Carboxymethyl)-N-(1,4-dihydro-6,7-dichloro-2,3-dioxoquinoxaline-5-yl)methanesulphonamide]
Cn1c(CN(c2c(Cl)c(Cl)cc3[nH]c(=O)c(=O)[nH]c23)S(C)(=O)=O)nc2ccccc21 [Example 56]
CCS(=O)(=O)Nc1c(Cl)c(Cl)cc2[nH]c(=O)c(=O)[nH]c12 [Example 1, N-(1,4-Dihydro-6,7-dichloro-2,3-dioxoguinoxalin-5-yl)ethanesulphonamide]
CN(c1c(Cl)c(Cl)cc2[nH]c(=O)c(=O)[nH]c12)S(C)(=O)=O [Example 8]

Reference: US5852016A, “Quinoxaline derivatives useful in therapy” (Pfizer Inc., priority 1994, dated 1998)
